Measurements taken from paper PMC13495017 (ACS Bio & Med Chem Au, 2026).

Experiments:
Assay type in all cases: cell-based
[1] = molecular target: CB1 I267L (Homo sapiens, UniProt P21554, I267L); assay: BRET Gαi1 engagement, CB1 I267L mutant; details: read-out: E max, CB1 I267L Gαi1 Engagement
[2] = molecular target: T1, CB2 (Homo sapiens, UniProt P34972); assay: BRET Gαi1 engagement, CB2 wild-type; details: HEK-293T, read-out: E max, CB2 Gαi1 Engagement
[3] = molecular target: CB2 triple mutant (I110L/L182I/V261L) (Homo sapiens, UniProt P34972, I110L/L182I/V261L); assay: BRET Gαi1 engagement, CB2 triple mutant; details: read-out: E max, CB2 Triple Mutations Gαi1 Engagement
[4] = molecular target: CB1 L193I (Homo sapiens, UniProt P21554, L193I); assay: BRET Gαi1 engagement, CB1 L193I mutant; details: read-out: E max, CB1 L193I Gαi1 Engagement
[5] = molecular target: CB2 V261L (Homo sapiens, UniProt P34972, V261L); assay: BRET Gαi1 engagement, CB2 V261L mutant; details: read-out: E max, CB2 V261L Gαi1 Engagement
[6] = molecular target: CB2 I110L (Homo sapiens, UniProt P34972, I110L); assay: BRET Gαi1 engagement, CB2 I110L mutant; details: read-out: E max, CB2 I110L Gαi1 Engagement
[7] = molecular target: CB1 (Homo sapiens, UniProt P21554); assay: BRET Gαi1 engagement, CB1 wild-type; details: CB1 WT, HEK-293T, normalized against CP55940, mean ± SEM
[8] = molecular target: T1, CB2; assay: BRET β-arrestin 2 recruitment, CB2 wild-type; details: HEK-293T, read-out: E max, CB2 β-Arrestin 2 Recruitment
[9] = molecular target: CB2 L182I (Homo sapiens, UniProt P34972, L182I); assay: BRET Gαi1 engagement, CB2 L182I mutant; details: read-out: E max, CB2 L182I Gαi1 Engagement
Chain of CB2 L182I (P34972 whole entry L182I): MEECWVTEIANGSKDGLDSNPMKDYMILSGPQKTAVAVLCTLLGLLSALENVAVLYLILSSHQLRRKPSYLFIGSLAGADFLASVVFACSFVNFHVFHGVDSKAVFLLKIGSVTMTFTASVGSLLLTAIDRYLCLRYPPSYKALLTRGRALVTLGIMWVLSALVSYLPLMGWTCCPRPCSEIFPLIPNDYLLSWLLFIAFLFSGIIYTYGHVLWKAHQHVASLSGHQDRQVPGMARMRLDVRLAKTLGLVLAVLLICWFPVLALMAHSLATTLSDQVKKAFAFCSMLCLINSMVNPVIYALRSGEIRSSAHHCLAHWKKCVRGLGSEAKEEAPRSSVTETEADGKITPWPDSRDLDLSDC

T1 sequence (P34972 whole entry): as the sequence (P34972 whole entry L182I) above, with I182L counted along it
Chain of CB2 I110L (P34972 whole entry I110L): as the sequence (P34972 whole entry L182I) above, with I110L, I182L counted along it
Chain of CB1 L193I (P21554 whole entry L193I): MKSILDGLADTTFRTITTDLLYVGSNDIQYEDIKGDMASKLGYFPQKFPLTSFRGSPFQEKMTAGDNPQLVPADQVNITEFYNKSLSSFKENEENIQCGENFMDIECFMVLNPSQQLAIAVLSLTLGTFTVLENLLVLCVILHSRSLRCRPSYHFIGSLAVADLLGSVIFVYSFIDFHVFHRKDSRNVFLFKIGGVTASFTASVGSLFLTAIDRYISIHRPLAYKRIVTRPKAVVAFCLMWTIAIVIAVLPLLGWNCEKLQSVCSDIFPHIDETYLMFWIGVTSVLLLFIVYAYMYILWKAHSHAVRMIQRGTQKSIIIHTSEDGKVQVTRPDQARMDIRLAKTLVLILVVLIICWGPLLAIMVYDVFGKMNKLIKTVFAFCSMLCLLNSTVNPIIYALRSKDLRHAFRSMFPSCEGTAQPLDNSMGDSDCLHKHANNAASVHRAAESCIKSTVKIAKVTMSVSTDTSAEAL
Chain of CB2 V261L (P34972 whole entry V261L): as the sequence (P34972 whole entry L182I) above, with I182L, V261L counted along it
Chain of CB2 triple mutant (I110L/L182I/V261L) (P34972 whole entry I110L/L182I/V261L): as the sequence (P34972 whole entry L182I) above, with I110L, V261L counted along it
Chain of CB1 (P21554 whole entry): as the sequence (P21554 whole entry L193I) above, with I193L counted along it
Chain of CB1 I267L (P21554 whole entry I267L): as the sequence (P21554 whole entry L193I) above, with I193L, I267L counted along it

With `CCCCCCC(C)(C)c1ccc([C@@H]2C[C@H](O)CC[C@H]2CCCO)c(O)c1` [CP55940] the Emax [1] was 77.6 ± 2.5%, the Emax [2] was 99.8 ± 2.7% and the Emax [3] was 3 ± 2%. The Emax [4] was 98.2 ± 2.2%, the Emax [5] was 33.8 ± 2.6% and the Emax [6] was 83.1 ± 2.8%. The “E max, CB1 Gαi1 Engagement” value [7] was 99.4 ± 3.0%, the Emax [8] was 99.7 ± 2.7% and the Emax [9] was 32.2 ± 2.5%.
